Here are results for 9 compounds from patent US20100330070A1, “Methods Of Making An Antibody And Compositions Thereof” (priority 2009, published 2010).

The test system of experiment [1] is LL-37. Nature of the experiment: LL-37 expression by OBA9 cells with Sepharose-coupled benzoic acid isomers. The experiment is classed as cell-based, human. The following applies: isomer coupled to NHS-activated Sepharose gel with EDC. From the text:
In order to investigate the structure-function relationship underlying EGCG-mediated induction of LL-37 from human gingival epithelial cell line OBA9, different isomers of benzoic acids are examined for their effects on the LL-37 expression by OBA9 cells. Each isomer of benzoic acids is coupled to NHS-activated Sepharose gel (Pierce) using a cross-linker, 1-Ethyl-3-[3-dimethylaminopropyl]carbodiimide (EDC, Pierce). The isomers of benzoic acids include 1) 2,6-di-hydroxy benzoic acid, 2) 2,3,4-tri-hydroxy benzoic acids, 3) 3,4,5-tri-hydroxy benzoic acids, and 4) 2,4,6-tri-hydroxy benzoic acids.

Experiment [2] deals with Actinobacillus actinomycetemcomitans Y4. Nature of the experiment: Bactericidal effect of culture supernatant of treated OBA9 cells. Format: cell-based. To be noted: supernatant of OBA9 treated at 20 ug/ml; compared with non-treated, catechin- and 2,4-dihydroxy benzoic acid-treated supernatant. The method, then:
The culture supernatant isolate from OBA9 is treated with 1) EGCG, 2) catechin, 3) 2,4-dihydroxy benzoic acid, and 4) 3,4,5-tri-hydroxy benzoic acid (20 ug/ml, respectively) and examined for their bactericidal effects on Actinobacillus actinomycetemcomitans Y4 (Aa Y4).

For experiment [3], the system named is LL-37. Nature of the experiment: ELISA of LL-37 induction from OBA9 cells. The experiment is classed as cell-based, human. To be noted: for induction of LL-37 expression: in the absence of EGCG; for induction of LL-37 (ELISA): 20 ug/ml. The method, then:
(§1) Using ELISA systems to detect LL-37 (Forsyth in-house) and hBD2 (Peprotech), 33 natural compounds (20 ug/ml) are examined for their ability to induce LL-37 and hBD2 from OBA9 cells. Although the sensitivity of the hBD2 ELISA is higher than that of LL-37 ELISA (10 pg/ml vs 1 ng/ml, respectively), the induction of LL-37 is more prominent than hBD2 (FIG. 2 A&B, LL-37; C&D, hBD2). […] Bactericidal effects of LL-37 and hBD2 are, in general, potent.
The Trihydroxybenzoate Derivatives of the Invention and rosemarinic acid, courmarin, catechin gallate, epicatechin gallate, epigallocatechin, and tannic acid are tested to induce LL-37 from OBA9 cells in the absence of EGCG.
Background: An ELISA detects its analyte on a solid surface through an enzyme-linked reagent.

For the next experiment, the system named is hBD2. Nature of the experiment: ELISA of hBD2 induction from OBA9 cells. The experiment is classed as cell-based, human. The following applies: 20 ug/ml. The protocol:
as §1

In experiment [4] the test system is hBD2 mRNA. Nature of the experiment: hBD2 mRNA expression in human gingival epithelial cell line OBA9. The experiment is classed as cell-based. To be noted: OBA9 cells, 4-hour exposure, 0.1, 1.0 and 10 ug/ml. The method, then:
(§2) Both LL-37 and hBD2 mRNA expression in OBA9 cells are induced after a 4-hour exposure to green tea polyphenol extract, Teaflan 90S (EGCG 50%, ECG 13%), and purified EGCG (95% pure, SIGMA) at concentrations of 0.1, 1.0 and 10 ug/ml. EGCG increases the production of LL-37 and hBD2 at the mRNA level in the human gingival epithelial cell line OBA9 (FIG. 1) as well as the human lung carcinoma cell line A549.

For experiment [5], the system named is LL-37. In words: Western blot of LL-37 protein in cheek epithelial cells. Format: in vivo, human. The following applies: Western blot with anti-LL-37 monoclonal antibody. From the text: (§3) Cheek epithelium is utilized for monitoring LL-37 mRNA and protein expression to determine if Trihydroxybenzoate Derivatives of the Invention can induce LL-37 in vivo. […] The isolated cheek cells are also subjected to Western blot analysis for protein expression of LL-37 by cheek epithelium using anti-LL-37 monoclonal antibody. The expression of both the proform (18 kD, also termed as hCAP18) and secreted form (4.5 kD) of LL-37 (12) in cheek epithelial cells is induced by Trihydroxybenzoate Derivatives of the Invention (e.g., EGCG (95% SIGMA), or by EGCG (90% Teavigo)).
In general terms: Immunoblotting shows a protein as a band on a membrane.

In experiment [6] the test system is LL-37 mRNA. In words: LL-37 mRNA level in human lung carcinoma cell line A549. The experiment is classed as cell-based. To be noted: A549 cells. The protocol: as §2
The subject of experiment [7] is hBD2 mRNA. In words: hBD2 mRNA level in human lung carcinoma cell line A549. The experiment is classed as cell-based. The following applies: A549 cells. The method, then: as §2
Experiment [8] concerns LL-37 mRNA. Nature of the experiment: RT-PCR of LL-37 mRNA in cheek epithelial cells after mouthwash. Format: in vivo, human. The following applies: mouthwash with 40 ug/ml, after 5 minutes.
Excerpt: as §3

For experiment [9], the system named is LL-37 mRNA. In words: LL-37 mRNA expression in human gingival epithelial cell line OBA9. The experiment is classed as cell-based. The following applies: OBA9 cells, 4-hour exposure, 0.1, 1.0 and 10 ug/ml. The method, then: as §2

Consider `O=C(O)c1cc(O)c(O)c(O)c1` [gallic acid, 3,4,5-trihydroxybenzoic acid], for which, in the experiment on LL-37 [1], the “induction of LL-37 expression by OBA9 cells” value (from here on “induction … by OBA9 cells”) is “show the induction”. For the same compound, the “bactericidal effects of culture supernatant on Aa Y4” value in [2] was “more bactericidal effects than control”. In addition, in the experiment on LL-37 [3], the “induction of LL-37 expression” value was “more potent than 3,4,-dihydroxy benzoate”.
As to `O=c1ccc2ccccc2o1` [courmarin], in the experiment with LL-37 [3], the “induction of LL-37 expression” value is on record as “little or no induction”.
Regarding `O=C(O)c1ccc(O)c(O)c1O` [2,3,4-tri-hydroxy benzoic acids, 2,3,4-trihydroxybenzoic acid], the “induction … by OBA9 cells” value in the experiment on LL-37 [1] is listed as “show the induction”.
As for `O=C(O)c1c(O)cccc1O` [2,6-di-hydroxy benzoic acids, 2,6-di-hydroxy benzoic acid], the “induction … by OBA9 cells” value in the experiment on LL-37 [1] is “not”.
Consider `CCCCCCCCCCCCCC(=O)O[C@@H]1[C@@H](C)[C@@]2(O)[C@@H](C=C(CO)C[C@]3(O)C(=O)C(C)=C[C@@H]23)[C@@H]2C(C)(C)[C@]12OC(C)=O` [PMA], for which the “induction of LL-37 (ELISA)” value in the experiment on LL-37 [3] was “induced”. Besides, the “induction of hBD2 (ELISA)” value in the experiment on hBD2 is “minimal induction activities”.
For `O=C(/C=C/c1ccc(O)c(O)c1)O[C@H](Cc1ccc(O)c(O)c1)C(=O)O` [Rosemarinic acid], the “induction of LL-37 expression” value with LL-37 [3] is “little or no induction”.
As for `O=C(O[C@@H]1Cc2c(O)cc(O)cc2O[C@@H]1c1cc(O)c(O)c(O)c1)c1cc(O)c(O)c(O)c1` [EGCG], in the experiment on hBD2 mRNA [4], the “hBD2 mRNA expression” value is on record as “induced”. For the same compound, the “expression of proform (18 kD) and secreted form (4.5 kD) of LL-37 in cheek epithelial cells” value in the experiment on LL-37 [5] is “induced”. Moreover, the “production of LL-37 at the mRNA level” value with LL-37 mRNA [6] was “increases”. Also, in experiment [2], the “bactericidal effects of culture supernatant on Aa Y4” value is “more bactericidal effects than control”. The “production of hBD2 at the mRNA level” value with hBD2 mRNA [7] was “increases”. The “LL-37 mRNA expression by cheek epithelial cells” value in the experiment with LL-37 mRNA [8] is recorded as “up-regulated”. The “LL-37 mRNA expression” value in the experiment with LL-37 mRNA [9] is given as “induced”.
In the case of `O=C(O)c1c(O)cc(O)cc1O` [2,4,6-tri-hydroxy benzoic acids], in the experiment with LL-37 [1], the “induction … by OBA9 cells” value is on record as “not”.
With Poly IC, in the experiment on LL-37 [3], the “induction of LL-37 (ELISA)” value was “induced”. In addition, in the experiment with hBD2, the “induction of hBD2 (ELISA)” value was “minimal induction activities”.
